According to patent publication US6680342B2, “Methods and compositions for inhibiting the proliferation of prostate cancer cells” (priority 2001, dated 2004):

Assays:
[1] = system: Sp1; experiment: Western blot of Sp1, LNCaP cells; type: cell-based, human
Experimental: (§3) Both cell lines were propagated in 24-well, 60 or 100 mm culture dishes at the desired density in RPMI 1640 (Mediatech, Herndon, Va.) supplemented with 5% fetal calf serum (FCS) (Biofluids, Rockville, Md.) at 37° C. and 5% CO2 until reaching 50-70% confluence.
(§4) LNCaP or LAPC-4 cells were plated in 10 cm dishes at 9×10^5 cells per dish in RPMI 1640 and 5% FCS. […] Cells were harvested at designated times, and the whole cell lysate was prepared according to manufacturer's instructions (Santa Cruz, Santa Cruz, Calif.). […] Protein levels were measured with a BioRad DC protein assay (BioRad, Hercules, Calif.). Protein samples (20 μg) were loaded into precast 4-12% NuPage gels (Novex, San Diego, Calif.), run with MOPS buffer, and transferred onto a nitrocellulose membrane (BioRad) according to the manufacturer's instructions. A Ponceau S staining was performed for total protein staining and visualized with a digital camera. The membranes were blocked overnight at 4° C. in TBST (20 mM Tris-HCl (pH 8.0), 137 mM NaCl, and 0.1% Tween 20) and 5% dry milk. The membranes were washed 3 times for ten min each with TBST. Primary antibody for the androgen receptor (1:2,000 dilution) (Pharmingen, San Diego, Calif.), Sp1 (1:2,000 dilution) (Santa Cruz) or heat shock protein70 (Hsp70) (1:1,000 diultion) (StressGene Biotechnologies, Victoria, B.C.) was incubated at room temperature for 1 hr. […]

[2] = system: male and female rats; conditions: approximately 40 to 1900 mg/kg/day; cited from earlier work
[3] = system: NKX3.1; experiment: Northern blot of NKX3.1 mRNA, LNCaP cells; type: cell-based, human; conditions: in the presence of androgen, 24 hrs
Experimental: (§1) The films were autoradiographed at −70° C. overnight.

[4] = system: PSA; experiment: Northern blot of PSA mRNA, LNCaP cells; type: cell-based, human; conditions: in the presence of androgen, 24 hrs
Experimental: as §1

[5] = system: PSA; experiment: PSA protein in spent media, immunometric assay, LNCaP cells; type: cell-based, human; conditions: 5 days, with or without Mib, normalized by MTS
Experimental: (§2) LNCaP cells were seeded at 2×10^4 cells per well in 24 well plates. […] After a 5 day incubation, the spent media were harvested, and the levels of PSA and hK2 quantified by an immunometric assay as described previously (Hsieh et al., 1997, Cancer Res., 57:2651-6). MTS assays were performed (Promega, Madison, Wis.) as per the manufacturer's instructions. The protein levels of PSA and hK2 were normalized by cell density measurements with the MTS assay.

[6] = system: ODC; experiment: Northern blot of ODC mRNA, LNCaP cells; type: cell-based, human; conditions: in the presence of androgen, 24 hrs
Experimental: as §1

[7] = system: hK2; experiment: hK2 protein in spent media, immunometric assay, LAPC-4 cells; type: cell-based, human; conditions: LAPC-4, 5 days, with or without Mib, normalized
[8] = system: PSA; experiment: PSA protein in spent media, immunometric assay, LAPC-4 cells; type: cell-based, human; conditions: LAPC-4, 5 days, with or without Mib, normalized
[9] = system: heat shock protein70 (Hsp70); experiment: Western blot of heat shock protein70, LNCaP cells; type: cell-based, human
Experimental: as §3, §4

[10] = system: hK2; experiment: hK2 protein in spent media, immunometric assay, LNCaP cells; type: cell-based, human; conditions: 5 days, with or without Mib, normalized by MTS
Experimental: as §2

## O=c1c(O)c(-c2ccc(O)c(O)c2)oc2cc(O)cc(O)c12 [quercetin, Quercetin]
[1]
  Sp1 protein level: not affected
[2]
  effects on survival: no treatment related effects on survival
[3]
  NKX3.1 mRNA levels: greatly reduced
[4]
  PSA mRNA levels: greatly reduced
[5]
  PSA protein levels: inhibits both PSA and hK2 protein levels in a dose-dependent manner
[6]
  ODC mRNA levels: greatly reduced
[7]
  hK2 protein levels: inhibits both PSA and hK2 protein levels in a dose-dependent manner
[8]
  PSA protein levels: inhibits both PSA and hK2 protein levels in a dose-dependent manner
[9]
  Hsp70 protein level: not affected
[10]
  hK2 protein levels: inhibits both PSA and hK2 protein levels in a dose-dependent manner
